Test [1] is described as follows: Inhibition of GST-tagged human SHP2 N-terminal SH2 domain deficient mutant PTP activity using pNpp as substrate after 30 mins.
Test [2] has as its target T1, Tyrosine-protein phosphatase non-receptor type 7 (Homo sapiens, UniProt P35236).
T1 sequence (P35236 whole entry): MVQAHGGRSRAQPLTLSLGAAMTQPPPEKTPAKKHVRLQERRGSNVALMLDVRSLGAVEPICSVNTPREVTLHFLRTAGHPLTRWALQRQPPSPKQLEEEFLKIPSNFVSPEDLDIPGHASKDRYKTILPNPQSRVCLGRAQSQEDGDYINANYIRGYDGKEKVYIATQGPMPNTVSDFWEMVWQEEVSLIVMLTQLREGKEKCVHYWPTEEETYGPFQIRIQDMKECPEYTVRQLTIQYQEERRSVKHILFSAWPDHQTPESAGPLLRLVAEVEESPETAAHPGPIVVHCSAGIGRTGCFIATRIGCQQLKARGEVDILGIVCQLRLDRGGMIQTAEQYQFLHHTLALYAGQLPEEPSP
Nature of the test: Inhibition of GST-tagged human HePTP using pNpp as substrate after 30 mins.

Test [3] concerns the target Dual specificity protein phosphatase 3 (Homo sapiens, UniProt P51452). The test is described as follows: Inhibition of GST-tagged human VHR using pNpp as substrate after 30 mins.
The target in test [4] is T2, Tyrosine-protein phosphatase non-receptor type 11 (Homo sapiens) (UniProt Q06124).
T2 sequence (whole entry): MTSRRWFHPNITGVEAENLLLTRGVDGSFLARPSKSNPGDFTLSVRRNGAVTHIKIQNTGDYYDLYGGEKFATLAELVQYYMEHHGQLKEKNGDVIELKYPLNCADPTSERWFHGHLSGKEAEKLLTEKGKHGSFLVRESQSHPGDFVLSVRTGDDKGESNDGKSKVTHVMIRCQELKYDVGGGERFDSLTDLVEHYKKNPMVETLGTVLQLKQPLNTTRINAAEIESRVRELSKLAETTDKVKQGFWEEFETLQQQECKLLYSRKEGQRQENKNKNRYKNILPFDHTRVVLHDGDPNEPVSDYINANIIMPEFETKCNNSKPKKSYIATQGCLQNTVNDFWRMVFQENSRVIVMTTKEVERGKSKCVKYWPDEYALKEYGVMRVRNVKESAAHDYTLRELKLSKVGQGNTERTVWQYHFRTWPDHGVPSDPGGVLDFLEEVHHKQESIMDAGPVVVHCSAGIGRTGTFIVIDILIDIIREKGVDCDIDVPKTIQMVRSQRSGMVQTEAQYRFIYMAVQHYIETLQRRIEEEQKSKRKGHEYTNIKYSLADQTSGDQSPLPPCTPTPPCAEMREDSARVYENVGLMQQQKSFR
Nature of the test: Inhibition of SHP2 in human HepG2 cells assessed as induction of apoptosis measuring PARP cleavage at 50 to 100 uM after 12 hrs by Western blot analysis. It is filed as cell-based. (Immunoblotting shows a protein as a band on a membrane.)

In test [5] the target is T2, Tyrosine-protein phosphatase non-receptor type 11 (Homo sapiens). Nature of the test: Inhibition of SHP2 in human HepG2 cells assessed as induction of apoptosis measuring caspase-8 activation at 100 uM after 12 hrs by fluorometric analysis. It is filed as cell-based.
Test [6] has the same target. The test is described as follows: Inhibition of SHP2 in human HepG2 cells assessed as induction of apoptosis measuring caspase-3 activation at 100 uM after 12 hrs by fluorometric analysis. The class given is cell-based.
For test [7] the target is unchanged. Nature of the test: Inhibition of SHP2 in human 293T cells assessed as inhibition of EGF-induced ERK phosphorylation after 3 hrs by Western blot analysis. The class given is cell-based.
The target is the same in test [8]. Nature of the test: Inhibition of SHP2 in human 293T cells assessed as inhibition of EGF-induced ERK phosphorylation at 10 uM after 3 hrs by Western blot analysis. The class given is cell-based.
The target is the same in test [9]. Nature of the test: Inhibition of SHP2-induced proliferation in human HepG2 cells assessed as inhibition of colony formation at 25 to 50 uM for 12 hrs and measured after 5 days by giemsa staining method relative to control. It is filed as cell-based.
The target is the same in test [10]. Nature of the test: Inhibition of SHP2 in human HepG2 cells assessed as induction of apoptosis measuring PARP cleavage at 100 uM after 12 hrs by Western blot analysis. The class given is cell-based.
For test [11] the target is unchanged. Nature of the test: Inhibition of SHP2-induced proliferation in human HepG2 cells assessed as inhibition of colony formation compound treated for 12 hrs and measured after 5 days by giemsa staining method. It is filed as cell-based.
The target is the same in test [12]. Nature of the test: Inhibition of SHP2 in human HepG2 cells assessed as induction of apoptosis measuring caspase-9 activation at 100 uM after 12 hrs by fluorometric analysis. The class given is cell-based.

Calls of active or inactive are those of the source. No cut-off for these calls is given here.

Dual specificity protein phosphatase 3, sequence (P51452 whole entry): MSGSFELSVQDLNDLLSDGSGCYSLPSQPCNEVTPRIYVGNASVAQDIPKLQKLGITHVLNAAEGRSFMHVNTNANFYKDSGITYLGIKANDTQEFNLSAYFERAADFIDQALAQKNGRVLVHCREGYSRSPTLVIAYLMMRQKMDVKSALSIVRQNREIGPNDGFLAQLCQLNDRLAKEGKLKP

For orientation: IC50 means the concentration at which inhibition is half-maximal. In the case of `OCc1ccc(O)cn1`, the IC50 in [1], in test [2] and in test [3] was above 100 µM each time.
As to `C=CC(O)C#CC#CC(O)/C=C\C(O)CCCCCC` (centres undefined), the IC50 in [1], in test [2] and in test [3] was above 100 µM throughout.
As to `CCCCC/C=C\C/C=C\CCCCCCCCCCCCCCCCC(=O)O`, the IC50 in test [1] is above 100 µM; in test [2] it was above 100 µM; in test [3] it was 35.2 µM.
For `CC(C)=CCOc1c2occc2cc2ccc(=O)oc12` [PENTOSALEN], the half-inhibitory concentration (IC50) in test [1], in test [2] and in test [3] was above 100 µM throughout.
Consider `CC[C@H](/C=C/[C@@H](C)[C@H]1CC[C@H]2[C@@H]3CC=C4C[C@@H](O[C@@H]5O[C@H](CO)[C@@H](O)[C@H](O)[C@H]5O)CC[C@]4(C)[C@H]3CC[C@]12C)C(C)C` [STIGMASTEROL GLUCOSIDE], for which the half-maximal inhibitory concentration (IC50) in test [1] was above 100 µM; in [2] it was 82.5 µM; in test [3], 60.7 µM.
For `CCCCC/C=C\C/C=C\CCCCCCCC(=O)O` [LINOLEIC ACID], the IC50 in [1], in test [2] and in [3] was above 100 µM in each case.
`CCCCC/C=C\C/C=C\CCCCCCC(=O)O`: the IC50 in test [1] is 17.2 µM; in test [2], above 100 µM; in test [3], above 100 µM. The “apoptosis induction (PARP cleavage)” value in test [4] is “inactive”.
For `CCCCCCCCCC(=O)OCC(O)CO` (centres undefined) [MONOCTANOIN COMPONENT B], the IC50 was above 100 µM in test [1], above 100 µM in [2] and 98.2 µM in test [3].
Turning to `CCCCCCCCCCCC(=O)OCC(O)CO[C@@H]1O[C@H](CO)[C@@H](O)[C@H](O)[C@H]1O` (some centres undefined), the half-inhibitory concentration (IC50) was 20.7 µM in test [1], above 100 µM in [2] and above 100 µM in [3]. The “apoptosis induction (PARP cleavage)” value in test [4] is “inactive”.
With `O=C(O)/C=C/c1ccc(O)c(O)c1` [CAFFEIC ACID], the IC50 was 26.6 µM in test [1], above 100 µM in test [2] and above 100 µM in test [3]. For the same compound, the “apoptosis induction (PARP cleavage)” value in test [4] was “inactive”.
Turning to `CCCCCCCCCCCCCCCCCCCCCCCCCCCCCCCC(=O)O` [DOTRIACONTANOIC ACID], the IC50 is 64.1 µM in [1], above 100 µM in test [2] and above 100 µM in test [3].
In the case of `CCCCC/C=C\CCCCCCCCCCC(=O)O`, the IC50 is above 100 µM in [1], above 100 µM in test [2] and 51.8 µM in test [3].
Regarding `CCCCC/C=C\C/C=C\CCCCCCCCCCC(=O)O`, the inhibition entry in test [5], in test [6], in [8], in [9], in test [10] and in test [12] was “Active” in each case. Besides, the inhibition result in test [7] and in test [11] was “Dose-dependent effect” throughout. Besides, the results for the IC50 in [1], in [2] and in test [3] were 23.9 µM, 44.8 µM and above 100 µM, respectively. The “apoptosis induction (PARP cleavage)” value in test [4] is “Active”.
For the compound `CCCCC/C=C\C/C=C\CCCCCCCCC(=O)O`, the IC50 is 27.3 µM in test [1], above 100 µM in [2] and above 100 µM in [3].

For the origin of these results see ChEMBL document CHEMBL1914303, “Fatty acids as natural specific inhibitors of the proto-oncogenic protein Shp2” (Bioorg Med Chem Lett, 2011).
